Peptide text beside a SMILES is read from it.
Molecular target: T1, KDM7B PHD-finger (Homo sapiens, UniProt Q9UPP1)
T1 construct: KDM7B 1-66; His-tag (C); made in house
T1 sequence (Q9UPP1 1-66 isoform Q9UPP1-2): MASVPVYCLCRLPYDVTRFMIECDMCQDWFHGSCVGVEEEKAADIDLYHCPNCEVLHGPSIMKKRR
Assay: Protein NMR 1H-15N HSQC chemical shift perturbation
Assay type: binding
Description: To better elucidate OC9 interactions at a single residue level, we conducted protein NMR studies using isotopically labelled PHD-finger.[48] Comparison of ^1H–^15N HSQC spectra for isotopically labelled apo and OC9-bound protein (Fig. 4a), independently assigned using ^13C,^15N 3D experiments (Fig. S21, NMR ESI ^†), identified 24 out of 66 protein residues with significant (standard deviation, s > 1) chemical shift perturbation (CSP, Δδ) of their backbone amides (Fig. 4b).
(a) ^1H–^15N HSQC of KDM7B PHD-finger in the apo (black) or bound forms with OC9 (purple, 1 : 1) or H3_1–21K4me3 (green, 3 : 1). (b) ^1H and ^15N chemical shift changes for apo vs. + OC9 were combined and weighted to give chemical shift perturbation (CSP) (Δδ) values. Standard deviation (σ) of Δδ are indicated (>1 pink, >2 purple). (c) TALOS+ predicts similar secondary structure elements in apo and OC9-bound solution protein complexes (light grey) to those found in PDB ID 3KV4 (dark grey). […] (e) Shielded ^1H-NMR signals centred around −0.5 ppm belonging to the OC9 V10 γ-methyl groups are observed in some OC9–PHD complexes, but not in apo protein, or complexes with OC9 V10A and OC9 V10DV. The V10^OC9 γ-methyl signals have NOE interactions (black semi-circles) with the W29^PHD indole, which itself is shielded upon binding of OC9 (indicated by ΔδH values).

Question: Which results are given for `CC(C)[C@@H]1NC(=O)[C@H](CO)NC(=O)[C@@H]2CCCN2C(=O)[C@H](Cc2ccc(O)cc2)NC(=O)[C@@H]2CCCN2C(=O)[C@H](Cc2c[nH]cn2)NC(=O)[C@H]([C@@H](C)O)NC(=O)[C@H](C)NC(=O)[C@H](Cc2ccc(O)cc2)NC(=O)[C@H](Cc2ccc(O)cc2)NC(=O)CSC[C@@H](C(N)=O)NC(=O)[C@H]([C@@H](C)O)NC(=O)[C@H](CCCNC(=N)N)NC(=O)[C@H](Cc2ccccc2)NC1=O` [L3A] (HELM PEPTIDE1{[O=C(C[*:3])[*:2]].Y.Y.A.T.H.P.Y.P.S.V.F.R.T.C.[am]}$PEPTIDE1,PEPTIDE1,1:R3-15:R3$$$V2.0; C-terminus assumed)?
Answer: CSP His49, OC9 vs OC9 L3A (residue His49 amide, PHD+OC9 vs PHD+OC9 L3A): 0.0165; CSP His57 (residue His57 amide 1H-15N, Free PHD vs PHD+peptide): 0.0486; CSP His57, OC9 vs OC9 L3A (residue His57 amide, PHD+OC9 vs PHD+OC9 L3A): 0.0065; CSP Ile21 (residue Ile21 amide 1H-15N, Free PHD vs PHD+peptide): 0.1438; CSP Ile21, OC9 vs OC9 L3A (residue Ile21 amide, PHD+OC9 vs PHD+OC9 L3A): 0.0277; CSP Ile45 (residue Ile45 amide 1H-15N, Free PHD vs PHD+peptide): 0.1010; CSP Ile45, OC9 vs OC9 L3A (residue Ile45 amide, PHD+OC9 vs PHD+OC9 L3A): 0.0202; CSP Ile61 (residue Ile61 amide 1H-15N, Free PHD vs PHD+peptide): 0.1437; CSP Ile61, OC9 vs OC9 L3A (residue Ile61 amide, PHD+OC9 vs PHD+OC9 L3A): 0.0065; CSP Leu9 (residue Leu9 amide 1H-15N, Free PHD vs PHD+peptide): 0.1892; CSP Leu9, OC9 vs OC9 L3A (residue Leu9 amide, PHD+OC9 vs PHD+OC9 L3A): 0.0129; CSP Leu12 (residue Leu12 amide 1H-15N, Free PHD vs PHD+peptide): 0.1747; CSP Leu12, OC9 vs OC9 L3A (residue Leu12 amide, PHD+OC9 vs PHD+OC9 L3A): 0.0115; CSP Leu47 (residue Leu47 amide 1H-15N, Free PHD vs PHD+peptide): 0.1015; CSP Leu47, OC9 vs OC9 L3A (residue Leu47 amide, PHD+OC9 vs PHD+OC9 L3A): 0.0102; CSP Leu56 (residue Leu56 amide 1H-15N, Free PHD vs PHD+peptide): 0.0523; CSP Leu56, OC9 vs OC9 L3A (residue Leu56 amide, PHD+OC9 vs PHD+OC9 L3A): 0.0102; CSP Lys41 (residue Lys41 amide 1H-15N, Free PHD vs PHD+peptide): 0.1015; CSP Lys41, OC9 vs OC9 L3A (residue Lys41 amide, PHD+OC9 vs PHD+OC9 L3A): 0.0275; CSP Lys63 (residue Lys63 amide 1H-15N, Free PHD vs PHD+peptide): 0.1309; CSP Lys63, OC9 vs OC9 L3A (residue Lys63 amide, PHD+OC9 vs PHD+OC9 L3A): 0.0000; CSP Lys64 (residue Lys64 amide 1H-15N, Free PHD vs PHD+peptide): 0.0250; CSP Lys64, OC9 vs OC9 L3A (residue Lys64 amide, PHD+OC9 vs PHD+OC9 L3A): 0.0034; CSP Met20 (residue Met20 amide 1H-15N, Free PHD vs PHD+peptide): 0.3554; CSP Met20, OC9 vs OC9 L3A (residue Met20 amide, PHD+OC9 vs PHD+OC9 L3A): 0.0065; CSP Met25 (residue Met25 amide 1H-15N, Free PHD vs PHD+peptide): 0.7126; CSP Met25, OC9 vs OC9 L3A (residue Met25 amide, PHD+OC9 vs PHD+OC9 L3A): 0.0388; CSP Met62 (residue Met62 amide 1H-15N, Free PHD vs PHD+peptide): 0.0950; CSP Met62, OC9 vs OC9 L3A (residue Met62 amide, PHD+OC9 vs PHD+OC9 L3A): 0.0055; CSP Phe19 (residue Phe19 amide 1H-15N, Free PHD vs PHD+peptide): 0.3115; CSP Phe19, OC9 vs OC9 L3A (residue Phe19 amide, PHD+OC9 vs PHD+OC9 L3A): 0.0174; CSP Phe30 (residue Phe30 amide 1H-15N, Free PHD vs PHD+peptide): 0.2578; CSP Phe30, OC9 vs OC9 L3A (residue Phe30 amide, PHD+OC9 vs PHD+OC9 L3A): 0.0115; CSP Ser3 (residue Ser3 amide 1H-15N, Free PHD vs PHD+peptide): 0.0045; CSP Ser3, OC9 vs OC9 L3A (residue Ser3 amide, PHD+OC9 vs PHD+OC9 L3A): 0.0000; CSP Ser33 (residue Ser33 amide 1H-15N, Free PHD vs PHD+peptide): 0.1165; CSP Ser33, OC9 vs OC9 L3A (residue Ser33 amide, PHD+OC9 vs PHD+OC9 L3A): 0.0065; CSP Ser60 (residue Ser60 amide 1H-15N, Free PHD vs PHD+peptide): 0.0496; CSP Ser60, OC9 vs OC9 L3A (residue Ser60 amide, PHD+OC9 vs PHD+OC9 L3A): 0.0034; CSP Thr17 (residue Thr17 amide 1H-15N, Free PHD vs PHD+peptide): 0.2647; CSP Thr17, OC9 vs OC9 L3A (residue Thr17 amide, PHD+OC9 vs PHD+OC9 L3A): 0.0068; CSP Trp29 (residue Trp29 amide 1H-15N, Free PHD vs PHD+peptide): 0.3312; CSP Trp29, OC9 vs OC9 L3A (residue Trp29 amide, PHD+OC9 vs PHD+OC9 L3A): 0.0599; CSP Tyr7 (residue Tyr7 amide 1H-15N, Free PHD vs PHD+peptide): 0.2566; CSP Tyr7, OC9 vs OC9 L3A (residue Tyr7 amide, PHD+OC9 vs PHD+OC9 L3A): 0.0115; CSP Tyr14 (residue Tyr14 amide 1H-15N, Free PHD vs PHD+peptide): 0.3127; CSP Tyr14, OC9 vs OC9 L3A (residue Tyr14 amide, PHD+OC9 vs PHD+OC9 L3A): 0.0065; CSP Tyr48 (residue Tyr48 amide 1H-15N, Free PHD vs PHD+peptide): 0.8682; CSP Tyr48, OC9 vs OC9 L3A (residue Tyr48 amide, PHD+OC9 vs PHD+OC9 L3A): 0.0765; CSP Val4 (residue Val4 amide 1H-15N, Free PHD vs PHD+peptide): 0.0240; CSP Val4, OC9 vs OC9 L3A (residue Val4 amide, PHD+OC9 vs PHD+OC9 L3A): 0.0068; CSP Val6 (residue Val6 amide 1H-15N, Free PHD vs PHD+peptide): 0.1640; CSP Val6, OC9 vs OC9 L3A (residue Val6 amide, PHD+OC9 vs PHD+OC9 L3A): 0.0055; CSP Val16 (residue Val16 amide 1H-15N, Free PHD vs PHD+peptide): 0.3687; CSP Val16, OC9 vs OC9 L3A (residue Val16 amide, PHD+OC9 vs PHD+OC9 L3A): 0.0230; CSP Val35 (residue Val35 amide 1H-15N, Free PHD vs PHD+peptide): 0.0569; CSP Val35, OC9 vs OC9 L3A (residue Val35 amide, PHD+OC9 vs PHD+OC9 L3A): 0.0102; CSP Val37 (residue Val37 amide 1H-15N, Free PHD vs PHD+peptide): 0.0783; CSP Val37, OC9 vs OC9 L3A (residue Val37 amide, PHD+OC9 vs PHD+OC9 L3A): 0.0065; CSP Val55 (residue Val55 amide 1H-15N, Free PHD vs PHD+peptide): 0.0206; CSP Val55, OC9 vs OC9 L3A (residue Val55 amide, PHD+OC9 vs PHD+OC9 L3A): 0.0055
